These results are taken from paper PMC7714071, “Interaction of amyloid beta with humanin and acetylcholinesterase is modulated by ATP” (FEBS Open Bio, 2020).

For this assay, the system named is Aβ in H1299 cell-conditioned media. Put plainly: ELISA, oligomer versus total Aβ in H1299 cell-conditioned media. In kind it is cell-based, human. Conditions: Fig. 8B. The procedure: Aβ ELISAs were carried out according to previous protocols for determining the oligomeric and monomeric concentrations of Aβ and as we recently reported. Briefly, total Aβ (monomers + oligomers) was measured by two‐site binding ELISAs using the capture 6E10 monoclonal antibody and 4G8‐conjugated biotin as the detection antibody, which recognizes a distinct epitope, then quantitated using streptavidin‐HRP.
Using the same samples, oligomerized Aβ was measured by a single‐site ELISA in which antibodies targeting the same primary sequence epitope were used for both capture (4G8) and detection (4G8‐biotin). Only oligomers are detected with this approach since the 4G8‐biotin antibody cannot bind to the captured monomer because the epitope is blocked by the 4G8 capture antibody. Therefore, only oligomeric or multimeric Aβ containing additional exposed 4G8 epitopes, not engaged by the capture antibody, are reported by the streptavidin–HRP. The amount of the monomer was then estimated as the difference between the concentration of total Aβ and the concentration of the oligomer.
Conditioned media were immunodepleted (ID) according to the methods previously described and our recently published report. Briefly, specific antibodies were bound to ELISA wells overnight (1 : 1000 dilution). The wells were then blocked and washed, then 300 μL of the conditioned medium (0.5 μg·μL^−1) treated as indicated, 72 h postserum starvation, was incubated with the antibodies bound to ELISA wells for 24 h. The ID media were then carefully removed and analyzed for the presence of the target protein or peptide by ELISA. The same amount of protein (3 µL of 600 µg·mL^−1 total protein) of each sample was analyzed in the experiments. Significant depletion (95–100%) was observed upon using each of the antibodies employed in this study.
Both epitopes recognized by the 6E10 and 4G8 antibodies have been previously shown to be exposed in Aβ aggregates. […] To determine the effect of ID of AChE or HN on this ratio in the absence or presence of added ATP, 0.2 × 10^5 cells per well were seeded in 96‐well plates in 10% FBS‐supplemented media. The next day, the cells were incubated in serum‐free medium for 72 h, then ID of AChE or HN as described in Materials and methods. The antibodies 6E10 or 4G8 were bound (1 : 1000 dilution) to ELISA wells (Fig. 8). The wells were blocked, and then incubated with 300 μL of the ID medium (0.5 μg·μL^−1). Biotin‐4G8 was then added and the signal processed as described in Materials and methods section. Fold change relative to controls using anti‐6E10 or anti‐4G8 antibodies incubated with 300 μL of the medium not incubated with cells was calculated.
Cells (0.2 × 10^5) were grown in 10% FBS‐supplemented media for 24 h. The cells were then incubated in serum‐free medium for 72 h without or with ATP and the media collected and ID from either HN or AChE as described in Materials and methods section. The antibodies 6E10 or 4G8 were bound (1 : 1000 dilution) to ELISA wells. The wells were blocked, and then incubated with 300 μL of the control and ID medium (0.5 μg·μL^−1). Biotin‐4G8 was then added and the signal processed as described in Materials and methods section. Fold change relative to controls using anti‐6E10 and anti‐4G8 antibodies and 300 μL of the medium not incubated with cells was calculated. Data were processed using the […] 8.4.3 software. The graphs summarize the results expressed as means ± SD of three separate experiments, each performed in triplicate. […]

`Nc1ncnc2c1ncn2[C@@H]1O[C@H](COP(=O)(O)OP(=O)(O)OP(=O)(O)O)[C@@H](O)[C@H]1O` [ATP, Adenosine triphosphate]: the “effect of ATP on relative amount of oligomer versus total Aβ” value is “does not affect” (HN-immunodepleted H1299 media, three experiments in triplicate) and “lack of effect” (non-depleted, HN-ID or AChE-ID media).
Take Humanin [HN]: the “oligomer, % of total Aβ remaining after HN ID” value (HN-immunodepleted H1299 media (non-depleted ~ 48%)) was ~ 69%. The “total Aβ remaining after HN ID” value (HN-immunodepleted H1299 media) is recorded as ~ 58%.
